Assay type in all cases: cell-based
The test system of test [1] is Chrysosporium keratinophilum. Briefly: Agar plate disc-diffusion, antifungal inhibition zone. The conditions noted are these: Sabouraud's dextrose agar, 37° C., 72 hours, DMSO zone subtracted; for inhibition zone, Chrysosporium keratinophilum, A: A = concentration of comp. = 10,000 μL; for inhibition zone, Chrysosporium keratinophilum, B: B = concentration of comp. = 30,000 μL; for inhibition zone, Chrysosporium keratinophilum, C: C = concentration of comp. = 50,000 μL. As for the experimental part:
(§1) The agar plate disc-diffusion method was applied. Sterilized filter papers (6 mm in diameter) were wetted with 10 μL of a solution of compounds 2-ethoxy[4,3:6,3-terpyridine]-3-carbonitrile 4 and/or 2-methoxy[4,3:6,3-terpyridine]-3-carbonitrile 5 to be tested, […], and the discs were allowed to air dry. The discs were then placed onto the surface of agar plates (nutrient agar for bacteria and Sabouraud's dextrose agar for fungi) seeded with the test organism. Each plate contained 15 mL of the agar medium, previously seeded with 0.2 mL of the broth culture of each organism pregrown for 18 h. The plates were incubated at 37° C. for 48 hours, and 72 hours for fungi. The inhibition zones were measured in mm. Discs impregnated with DMSO were used as a control, and its inhibition zone was subtracted from the tested compound actual inhibition zone.
In general terms: Agar diffusion results depend on both activity and mobility in agar.

The test system of another test is Aspergillus flavus. The description is as above. The conditions noted are these: Sabouraud's dextrose agar, 37° C., 72 hours, DMSO zone subtracted; for inhibition zone, Aspergillus flavus, A: A = concentration of comp. = 10,000 μL; for inhibition zone, Aspergillus flavus, B: B = concentration of comp. = 30,000 μL; for inhibition zone, Aspergillus flavus, C: C = concentration of comp. = 50,000 μL. As for the experimental part:
as §1

The test system of the next test is Pseudomonas aeruginosa. Briefly: Agar plate disc-diffusion, antibacterial inhibition zone. Conditions: nutrient agar, 37° C., 48 hours, DMSO zone subtracted; for inhibition zone, Pseudomonas aeruginosa, A: A = concentration of comp. = 10,000 μL; for inhibition zone, Pseudomonas aeruginosa, B: B = concentration of comp. = 30,000 μL; for inhibition zone, Pseudomonas aeruginosa, C: C = concentration of comp. = 50,000 μL. Here is the method: as §1

The test system of another test is Bacillus cereus. Described as above. Conditions: nutrient agar, 37° C., 48 hours, DMSO zone subtracted; for inhibition zone, Bacillus Cereus, A: A = concentration of comp. = 10,000 μL; for inhibition zone, Bacillus Cereus, B: B = concentration of comp. = 30,000 μL; for inhibition zone, Bacillus Cereus, C: C = concentration of comp. = 50,000 μL. Here is the method: as §1

Another test has as its system Escherichia coli. Described as above. The conditions noted are these: nutrient agar, 37° C., 48 hours, DMSO zone subtracted; for inhibition zone, Escherichia coli, A: A = concentration of comp. = 10,000 μL; for inhibition zone, Escherichia coli, B: B = concentration of comp. = 30,000 μL; for inhibition zone, Escherichia coli, C: C = concentration of comp. = 50,000 μL. Here is the method: as §1

For the next test, the system named is Staphylococcus aureus. The test is described as above. The conditions noted are these: nutrient agar, 37° C., 48 hours, DMSO zone subtracted; for inhibition zone, Staphylococcus aureus, A: A = concentration of comp. = 10,000 μL; for inhibition zone, Staphylococcus aureus, B: B = concentration of comp. = 30,000 μL; for inhibition zone, Staphylococcus aureus, C: C = concentration of comp. = 50,000 μL. As for the experimental part: The agar plate disc-diffusion method was applied. […] The discs were then placed onto the surface of agar plates (nutrient agar for bacteria and Sabouraud's dextrose agar for fungi) seeded with the test organism. Each plate contained 15 mL of the agar medium, previously seeded with 0.2 mL of the broth culture of each organism pregrown for 18 h. The plates were incubated at 37° C. for 48 hours, and 72 hours for fungi. The inhibition zones were measured in mm. Discs impregnated with DMSO were used as a control, and its inhibition zone was subtracted from the tested compound actual inhibition zone.

As to `CCOc1nc(-c2cccnc2)cc(-c2cccnc2)c1C#N` [Compound 4, 2-ethoxy[4,3:6,3-terpyridine]-3-carbonitrile], in test [1], the “inhibition zone, Chrysosporium keratinophilum, A” value was 24 mm; the “inhibition zone, Chrysosporium keratinophilum, B” value is on record as 27 mm; the “inhibition zone, Chrysosporium keratinophilum, C” value amounted to 40 mm. Besides, in the test on Aspergillus flavus, the “inhibition zone, Aspergillus flavus, A” value is 21 mm; the “inhibition zone, Aspergillus flavus, B” value amounted to 25 mm; the “inhibition zone, Aspergillus flavus, C” value turned out to be 35 mm. In the test on Pseudomonas aeruginosa, the “inhibition zone, Pseudomonas aeruginosa, A” value turned out to be 24 mm; the “inhibition zone, Pseudomonas aeruginosa, B” value was 29 mm; the “inhibition zone, Pseudomonas aeruginosa, C” value came to 39 mm. In addition, in the test on Bacillus cereus, the “inhibition zone, Bacillus Cereus, A” value is 24 mm; the “inhibition zone, Bacillus Cereus, B” value amounted to 27 mm; the “inhibition zone, Bacillus Cereus, C” value was 35 mm. Besides, in the test with Escherichia coli, the “inhibition zone, Escherichia coli, A” value is listed as 27 mm; the “inhibition zone, Escherichia coli, B” value is 37 mm; the “inhibition zone, Escherichia coli, C” value was determined as 48 mm. In the test with Staphylococcus aureus, the “inhibition zone, Staphylococcus aureus, A” value was 18 mm; the “inhibition zone, Staphylococcus aureus, B” value was 22 mm; the “inhibition zone, Staphylococcus aureus, C” value is listed as 34 mm.
Turning to `COc1nc(-c2cccnc2)cc(-c2cccnc2)c1C#N` [Compound 5, 2-methoxy[4,3:6,3-terpyridine]-3-carbonitrile], in test [1], the “inhibition zone, Chrysosporium keratinophilum, A” value worked out at 27 mm; the “inhibition zone, Chrysosporium keratinophilum, B” value is listed as 29 mm; the “inhibition zone, Chrysosporium keratinophilum, C” value is listed as 48 mm. In the test on Aspergillus flavus, the “inhibition zone, Aspergillus flavus, A” value is listed as 25 mm; the “inhibition zone, Aspergillus flavus, B” value is recorded as 27 mm; the “inhibition zone, Aspergillus flavus, C” value is listed as 38 mm. For the same compound, in the test on Pseudomonas aeruginosa, the “inhibition zone, Pseudomonas aeruginosa, A” value was found to be 24 mm; the “inhibition zone, Pseudomonas aeruginosa, B” value is 32 mm; the “inhibition zone, Pseudomonas aeruginosa, C” value amounted to 38 mm. In the test with Bacillus cereus, the “inhibition zone, Bacillus Cereus, A” value is recorded as 26 mm; the “inhibition zone, Bacillus Cereus, B” value is 28 mm; the “inhibition zone, Bacillus Cereus, C” value is 38 mm. In addition, in the test on Escherichia coli, the “inhibition zone, Escherichia coli, A” value is 28 mm; the “inhibition zone, Escherichia coli, B” value worked out at 38 mm; the “inhibition zone, Escherichia coli, C” value worked out at 50 mm. Also, in the test on Staphylococcus aureus, the “inhibition zone, Staphylococcus aureus, A” value came to 19 mm; the “inhibition zone, Staphylococcus aureus, B” value was 28 mm; the “inhibition zone, Staphylococcus aureus, C” value is 34 mm.

The record behind these values is patent US11958832B1, “2-alkoxy[4,3:6,3-terpyridine]-3-carbonitriles as antimicrobial compounds” (KING FAISAL UNIVERSITY, priority 2023, dated 2024).
